The values that follow come from patent US7342039B2, “Substituted indole oximes” (Wyeth, priority 2003, dated 2008).

A word on the melting point: it is the temperature of the solid-liquid transition. As usually defined, the IC50 is the midpoint of a concentration-inhibition curve. Lower therefore signals inhibition by little substance. As a reminder, the inhibition is how much of the control response was suppressed.

The target in data set [1] is human PAI-1 (Homo sapiens, UniProt P05121). In words: Assay for determining the IC50 of inhibition of PAI-1 (antibody detection of active PAI-1 bound to tPA-coated plate). The data set is classed as binding. To be noted: human PAI-1 50 ng/ml, pH 7.5. As to the method: Assay for determining the IC50 of inhibition of PAI-1. This assay is based upon the non-SDS dissociable interaction between tPA and active PAI-1. Assay plates are initially coated with human tPA (10 μg/ml). Test compounds are dissolved in DMSO at 10 mM, then diluted with physiologic buffer (pH 7.5) to a final concentration of 1-50 μM. The test compounds are incubated with human PAI-1 (50 ng/ml) for 15 minutes at room temperature. The tPA-coated plate is washed with a solution of 0.05% Tween 20 and 0.1% BSA, then the plate is blocked with a solution of 3% BSA. An aliquot of the test compound/PAI-1 solution is then added to the tPA-coated plate, incubated at room temperature for 1 hour, and washed. Active PAI-1 bound to the plate is assessed by adding an aliquot of a 1:1000 dilution of the 33B8 monoclonal antibody against human PAI-1, and incubating the plate at room temperature for 1 hour (Molecular Innovations, Royal Oak, Mich.). The plate is again washed, and a solution of goat anti-mouse IgG-alkaline phosphatase conjugate is added at a 1:50,000 dilution in goat serum. The plate is incubated 30 minutes at room temperature, washed, and a solution of alkaline phosphatase substrate is added. The plate is incubated 45 minutes at room temperature, and color development is determined at OD405 nm. The quantitation of active PAI-1 bound to tPA at varying concentrations of the test compound is used to determine the IC50. Results are analyzed using a logarithmic best-fit equation. The assay sensitivity is 5 ng/ml of human PAI-1 as determined from a standard curve ranging from 0-100 ng/ml.
human PAI-1, sequence (P05121 24-402): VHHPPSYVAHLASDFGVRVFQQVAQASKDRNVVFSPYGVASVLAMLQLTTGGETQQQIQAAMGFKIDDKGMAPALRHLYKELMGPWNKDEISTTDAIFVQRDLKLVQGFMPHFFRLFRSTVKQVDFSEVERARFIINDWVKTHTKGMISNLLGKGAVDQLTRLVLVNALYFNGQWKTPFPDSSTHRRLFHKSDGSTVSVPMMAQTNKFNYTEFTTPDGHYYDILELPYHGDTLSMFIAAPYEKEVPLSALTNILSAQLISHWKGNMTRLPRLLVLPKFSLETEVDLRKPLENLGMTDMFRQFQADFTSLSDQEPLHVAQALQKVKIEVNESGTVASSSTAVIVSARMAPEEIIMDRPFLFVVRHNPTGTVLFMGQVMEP

Data set [2] has as its target T1, recombinant human plasminogen activator inhibitor-1 (PAI-1) (Homo sapiens, UniProt P05121).
T1 construct: purchased Molecular Innovations, Royal Oak, Mich
Nature of the data set: Screening for PAI-1 inhibition (chromogenic residual tPA activity, Spectrozyme-tPA). It counts as biochemical. To be noted: 25 μM test compound; 140 nM PAI-1, 70 nM tPA, pH 6.6. As to the method: Screening for PAI-1 inhibition. Test compounds are dissolved in DMSO at a final concentration of 10 mM, then diluted 100× in physiologic buffer. The inhibitory assay is initiated by the addition of the test compound (1-100 μM final concentration, maximum DMSO concentration of 0.2%) in a pH 6.6 buffer containing 140 nM recombinant human plasminogen activator inhibitor-1 (PAI-1; Molecular Innovations, Royal Oak, Mich.). Following a 1 hour incubation at room temperature, 70 nM of recombinant human tissue plasminogen activator (tPA) is added, and the combination of the test compound, PAI-1 and tPA is incubated for an additional 30 minutes. Following the second incubation, Spectrozyme-tPA (American Diagnostica, Greenwich, Conn.), a chromogenic substrate for tPA, is added and absorbance read at 405 nm at 0 and 60 minutes. Relative PAI-1 inhibition is equal to the residual tPA activity in the presence of the test compounds and PAI-1. Control treatments include the complete inhibition of tPA by PAI-1 at the molar ratio employed (2:1), and the absence of any effect of the test compound on tPA alone.

T1 sequence (P05121 24-402): as above

`O=C(O)c1ccc(CO/N=C/c2cc3ccccc3n2Cc2ccccc2)cc1Br` [Compound 4, 4-[({[(1E)-(1-benzyl-1H-indol-2-yl)methylidene]amino}oxy)methyl]-2-bromobenzoic acid]: the melting point lay in the range of 148 to 149 °C. Besides, in data set [1], the concentration for half-maximal inhibition (IC50) amounted to 12.3 µM. For the compound `CC(C)(C)c1ccc(C(=O)Nc2cc(OCCCO/N=C/c3cn(Cc4ccccc4)c4ccccc34)ccc2C(=O)O)cc1` [Compound 1, 4-[3-({[(1E)-(1-benzyl-1H-indol-3-yl)methylidene]amino}oxy)propoxy]-2-[(4-tert-butylbenzoyl)amino]benzoic acid], the IC50 in data set [1] is 11.8 µM. Take `Cc1c(/C=N/OCCCOc2ccc(CC(=O)O)cc2)c2ccccc2n1C` [Compound 7, {4-[3-({[(1E)-(1,2-dimethyl-1H-indol-3-yl)methylidene]amino}oxy)propoxy]phenyl}acetic acid]: the inhibition at 25 µM in data set [2] was 54%. Turning to `O=C(O)c1ccc(OCCCO/N=C/c2cc3ccccc3n2Cc2ccccc2)c(-c2ccc(C(F)(F)F)cc2)c1` [Compound 8, 6-[3-({[(1E)-(1-benzyl-1H-indol-2-yl)methylidene]amino}oxy)propoxy]-4′-(trifluoromethyl)-1,1′-biphenyl-3-carboxylic acid], the melting point lay in the range of 196 to 197 °C. In data set [2], the inhibition at 25 µM worked out at 100%.

In the case of `O=C(O)c1ccc(OCCCO/N=C/c2cc3ccccc3n2Cc2ccccc2)cc1O` [Compound 5, 4-[3-({[(1E)-(1-benzyl-1H-indol-2-yl)methylidene]amino}oxy)propoxy]-2-hydroxybenzoic acid], the melting point is 175 to 176 °C (dec.). The compound also had an IC50 in data set [1] of 22.4 µM. In turn, `O=C(O)c1ccc(OCCCO/N=C/c2cn(Cc3ccccc3)c3ccccc23)c(-c2ccc(C(F)(F)F)cc2)c1` [Compound 6, 6-[3-({[(1E)-(1-benzyl-1H-indol-3-yl)methylidene]amino}oxy)propoxy]-4′-(trifluoromethyl)-1,1′-biphenyl-3-carboxylic acid] gave a melting point of 193 to 194 °C. Further, the inhibition at 25 µM in data set [2] was found to be 55%. As for `O=C(O)c1ccc(CO/N=C/c2cn(Cc3ccccc3)c3ccccc23)cc1Br` [Compound 3, 4-[({[(1E)-(1-benzyl-1H-indol-3-yl)methylidene]amino}oxy)methyl]-2-bromobenzoic acid], half-maximal inhibition in data set [1] (IC50) required 29.2 µM.

The compound `O=C(O)c1ccc(OCCCO/N=C/c2cn(Cc3ccccc3)c3ccccc23)cc1O` [Compound 2, 4-[3-({[(1E)-(1-benzyl-1H-indol-3-yl)methylidene]amino}oxy)propoxy]-2-hydroxybenzoic acid] showed a half-inhibitory concentration (IC50) in data set [1] of 21.6 µM.

In turn, `Cc1c(/C=N/OCc2ccc(C(=O)O)c(Br)c2)c2ccccc2n1C` [Compound 9, 2-bromo-4-[({[(1E)-(1,2-dimethyl-1H-indol-3-yl)methylidene]amino}oxy)methyl]benzoic acid] had a melting point of 165 to 166 °C. Also, in data set [2], the inhibition at 25 µM was determined as 34%.
